# Measurements: paper PMC12037858 (Scientific Reports, 2025)
# Target: Fascin (Homo sapiens, UniProt Q16658)
# Assay: Image-based F-actin bundling assay
# Type: biochemical
# Conditions: 400 µM compound
structure (smiles),measurement,value
O=C(Nc1ccncc1)c1cn(Cc2ccc(Cl)c(Cl)c2)c(=O)c2cnn(C3CCNCC3)c12 [BDP-13176],Inhibition of fascin-mediated F-actin bundle formation,prevents fiber formation
